Source: patent US7261889B2, “Local anesthetic methods and kits” (Novalar Pharmaceuticals, Inc., priority 2000, dated 2007)
“Also recorded” adds a separate entry of the source. Counter-ions that a name gives are not always drawn.

Legend:
[1] = tested on: local anesthesia from 2% polocaine (mepivacaine hydrochloride) with levonordefrin in healthy, male human subjects; experiment: Human subjects study of local anesthesia reversal by LARA versus saline vehicle (bilateral injections); assay type: in vivo; settings: three subjects; 0.05 mg/ml phentolamine-mesylate, 1.6 ml (0.08 mg)
Protocol: An injection of the physiological saline vehicle (without phentolamine-mesylate) served as the control. […] This was followed by injection of the phentolamine-mesylate containing local anesthetic reversal agent (LARA) into one side of the oral cavity, and injection of the saline vehicle (control) solution into the opposite side of the oral cavity. The time to reversal of the local anesthetic effect on both sides was then recorded to determine whether there is a difference between the two sides.
The local anesthetic used was 2% polocaine (mepivacaine hydrochloride) with levonordefrin (1:20,000=0.05 mg/ml) (levonordefrin injection, USP) (Astra USA, Inc., Westborough, Mass. 01581). Levonordefrin is a sympathomimetic amine with a pharmacological profile similar to that of epinephrine, but with a lower potency.
Three healthy, male human subjects, age 34-50, volunteered to have local anesthetic injected in the mouth bilaterally under the lip in an easily repeatable location. The exact time of each injection was recorded. The position chosen was above (apical) the prominence of the root of the upper cuspid teeth. This is a common site selected to numb the cuspids, lateral incisors and upper lip. The volume of the local anesthetic injected was 1.7+0.1 ml on each side of the mouth. […]

[2] = tested on: patients pretreated with lignocaine admixed with epinephrine; settings: 0.5-1.5 mg; '714 patent Example 1, Table 1; cited from earlier work
patients = settings: systemic doses; usually in association with marked hypotensive episodes; cited from earlier work

SMILES | local anesthesia reversal compared to saline side (in words) [1] | side-effects [1] | duration of anesthesia [2] | side effects reported following administration (patients)
Cc1ccc(N(CC2=NCCN2)c2cccc(O)c2)cc1 [phentolamine-mesylate, phentolamine mesylate] | highly effective anesthesia reversal | no side-effects of any kind were noted; also recorded: without any side-effects whatsoever | – | –
Cc1ccc(N(CC2=NCCN2)c2cccc(O)c2)cc1 [phentolamine] | – | – | reduction in the duration of anesthesia with increasing amounts | Myocardial infarction, cerebrovascular spasm, and cerebrovascular occlusion have been reported
